Results from US20240173374A1, “LIPOSOMAL FORMULATIONS OF BORONIC ACID CONTAINING ACTIVE AGENTS” (Ohio State Innovation Foundation, priority 2021, published 2024).

Key:
[1] = BTZ / boronic acid drug loading into liposomes (UV absorption or HPLC); type: physicochemical; conditions: tiron-based liposomes, same drug loading protocol
Protocol: Remote loading of BTZ into liposomes encapsulating calcium ascorbate/calcium acetate. Lipids (DSPC/Chol/mPEG-DSPE 60:35:5 mole/mole) were dissolved in chloroform, dried into a thin film on a round-bottom flask and hydrated in 100 mM calcium ascorbate/50 mM calcium acetate (pH 8). The resulting liposomes were subjected to 5 cycles of freezing and thawing and extrusion through a 100-nm pore size polycarbonate membrane in a Lipex extruder at 65 degree. […] External buffer of the liposomes was exchanged to 130 mM NaCl/10 mM histidine (pH 6) by passing through a Sepharose CL-4B column. […] BTZ was dissolved in a small volume of DMSO and added to the liposomes and incubated under stirring at 20-60 degrees for 10-60 min (e.g., 30 min at 50 degree) to facilitate remote loading. BTZ diffuses into the liposomes and forms a complex with ascorbic acid (BTZ-ASC complex), which is negatively charged and partially precipitates intraliposome with calcium, resulting in stable encapsulation of the BTZ. Finally, unencapsulated BTZ was removed from the liposomes by passing through a Sepharose CL-4B column. BTZ concentration in the L-BTZ was determined by UV absorption or by HPLC. […]
Remote loading of BTZ into liposomes containing ascorbyl palmitate (ASC-C16) and encapsulating calcium acetate. […] BTZ concentration in the L-BTZ was determined by UV absorption or by HPLC. […]

[2] = tested on: NCI-H929 multiple myeloma; experiment: Antitumor activity in NCI-H929 multiple myeloma subcutaneous murine xenograft model; type: in vivo, mice; conditions: FIG. 3B
Description: (3A) anti-tumor effect, (3B) body weight loss, and (3C) survival curves result in vivo.

[3] = Plasma pharmacokinetics of L-BTZ and Velcade in rats after single dose; type: in vivo; conditions: 0.6 mg/kg, 5 ul/g, plasma BTZ by LC-MS
Protocol: Plasma concentrations were determined by LC-MS. Compared to Velcade, the circulation time L-BTZ was much longer, which subsequently enhances the therapeutic effect and half-life time in vivo.

[4] = clinical trial for SLE; cited from earlier work
[5] = AML trial; cited from earlier work
AML murine model = conditions: cited from earlier work

| drug loading [1] | CLss_F ([3]; i.v.) [mL/min/kg] | Vz_F ([3]; i.v.) [L/kg] | AUC(0-inf) ([3]; rat, iv) [ng·h/mL] | AUC(0-t) ([3]; rat, iv) [ng·h/mL] | Cmax ([3]; rat, iv) [ng/mL] | Tmax ([3]; rat, iv) [h] | half-life ([3]; rat, iv) [h] | Structure (SMILES) | body weight loss during treatment [2] | dropped out due to side effects [4] | drop out due to neurotoxicity [5] | reaching effective dose (limited by toxicity) (AML murine model) |
| --- | --- | --- | --- | --- | --- | --- | --- | --- | --- | --- | --- | --- |
| High drug loading | – | – | – | – | – | – | – | CC(C)C[C@H](NC(=O)[C@@H](NC(=O)c1cccc(-c2ccccc2)n1)[C@@H](C)O)B(O)O [delanzomib] | – | – | – | – |
| – | 18.9 | 54.22 | 864 | 322 | 45.4 | 0.25 | 33.1 | CC(C)C[C@H](NC(=O)[C@H](Cc1ccccc1)NC(=O)c1cnccn1)B(O)O [free BTZ, Bortezomib] | no significant body weight loss | 7/12 | 4/7 | cannot reach effective dose |
| High drug loading | – | – | – | – | – | – | – | CC(C)C[C@H](NC(=O)CNC(=O)c1cc(Cl)ccc1Cl)B(O)O [ixazomib] | – | – | – | – |
